26 molecules from US20100190747A1, “Fused ring compound and use thereof” (priority 2009, published 2010) can be followed below.

The inhibition is the drop in the measured response relative to a control, in per cent.

This experiment deals with T1, delta-5-desaturase (Rattus norvegicus, UniProt Q920R3).
T1 construct: the microsomal fraction of a rat river (10 μl), which had been diluted to 3 mg/ml; from tissue; host or cells: rat liver microsomal fraction
Description: Inhibitory activity on delta-5-desaturase (rat liver microsomal fraction, 14C-eicosatrienoic acid, TLC). Format: biochemical. Conditions: test compound at 10 μM, room temperature, 120 minutes. The method, then:
An inhibitory activity of a test compound on delta-5-desaturase was measured according to the method described herein below. To a DMSO solution of the test compound which had been previously prepared, secondary dilution was carried out by using a buffer (300 mM NaH2PO4 [pH 7.4], 450 mM KCl, 30 mM NaF, 9 mM MgCl2, 4.5 mM glutathione [reduced form], 0.3% BSA [fatty acid free, SIGMA]). This diluent compound (10 μl) was added in a 96-well deep well block made of polypropylene, and then the microsomal fraction of a rat river (10 μl), which had been diluted to 3 mg/ml by using a microsome buffer (10 mM Tris-HCl [pH 7.4], 1 mM EDTA, and 250 mM sucrose), was added thereto. The enzyme reaction was initiated by adding 10 μl of 9 mM NADH, 9 mM ATP, 0.9 mM CoA and 10 μCi/ml (8E,11E,14E)-(1-^14C)eicosa-8,11,14-trienoic acid (PerkinElmer Inc.). The enzyme reaction was carried out at room temperature for 120 minutes, and then terminated by addition of 2.5 M NaOH (10 μl). Upon the completion of the reaction, the plate was covered with plate seal and incubated overnight in a dry heater of which temperature was set at 55° C. for saponification. Based on Bligh & Dyer method which had been described in a known document, Canadian Journal of Biochemistry and Physiology (Can. J. Biochem. Physiol.), Vol. 37, page 911, 1959), the solvent extraction of fatty acid was carried out by adding 200 μl of formic acid:methanol:chloroform (1:6:3), keeping the mixture as a single layer for a while, stirring the mixture to a sufficient level, and adding 120 μl of pure water to separate the mixture into two layers. 10 μl of the bottom chloroform layer was spotted on a reverse phase TLC plate (RP-18, 1154230001, Merck Japan, Ltd.) and then developed with acetonitrile:pure water:acetic acid (95:4.5:0.5). The TLC plate obtained after drying was transferred to an Imaging Plate (Fuji Photo Film Co., Ltd.) for more than 5 hours. Detection was carried out by using BAS-5000 (Fuji Photo Film Co., Ltd.). Numerization of thus-obtained image was carried out by using Multi Gauge Ver 2.3 (Fuji Photo Film Co., Ltd.) and an inhibitory ratio (%) of the test compound at 10 μM on delta-5-desaturase was obtained.
For orientation: Liver microsomes are vesicles of endoplasmic reticulum, rich in cytochrome P450 enzymes.

T1 sequence (Q920R3 whole entry): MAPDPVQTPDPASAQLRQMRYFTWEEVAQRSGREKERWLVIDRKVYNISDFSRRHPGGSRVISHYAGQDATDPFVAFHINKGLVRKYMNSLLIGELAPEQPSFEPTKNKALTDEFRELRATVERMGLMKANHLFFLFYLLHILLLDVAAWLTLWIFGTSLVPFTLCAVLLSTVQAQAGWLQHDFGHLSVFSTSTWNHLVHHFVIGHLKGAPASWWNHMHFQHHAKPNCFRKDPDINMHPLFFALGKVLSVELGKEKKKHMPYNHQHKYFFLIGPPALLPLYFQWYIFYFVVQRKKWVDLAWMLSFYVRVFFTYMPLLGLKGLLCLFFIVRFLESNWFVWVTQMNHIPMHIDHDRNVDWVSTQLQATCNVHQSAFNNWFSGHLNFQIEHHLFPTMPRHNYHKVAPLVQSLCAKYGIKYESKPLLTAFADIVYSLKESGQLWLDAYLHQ

Regarding `CC(C)(CO)NC(=O)CCCSc1nc2cc[nH]c2c(=O)n1-c1ccc(OCC(F)(F)F)cc1` [Example 100, N-(2-hydroxy-1,1-dimethylethyl)-4-({4-oxo-3-[4-(2,2,2-trifluoroethoxy)phenyl]-4,5-dihydro-3H-pyrrolo[3,2-d]pyrimidin-2-yl}sulfanyl)butanamide], the inhibition at 10 µM was 100%.

With `O=c1c2[nH]ccc2nc(SCC(F)(F)F)n1-c1ccc(OCC(F)(F)F)cc1` [Example 103, 3-[4-(2,2,2-Trifluoroethoxy)phenyl]-2-[(2,2,2-trifluoroethyl)sulfanyl]-3,5-dihydro-4H-pyrrolo[3,2-d]pyrimidin-4-one], the inhibition at 10 µM came to 100%.

For `CCSc1nc2cc[nH]c2c(=O)n1-c1ccc(OCC(F)(F)F)cc1` [Example 104, 2-(Ethylsulfanyl)-3-[4-(2,2,2-trifluoroethoxy)phenyl]-3,5-dihydro-4H-pyrrolo[3,2-d]pyrimidin-4-one], the inhibition at 10 µM is 100%.

In the case of `CCCSc1nc2cc[nH]c2c(=O)n1-c1ccc(OCC(F)(F)F)cc1` [Example 105, 2-(Propylsulfanyl)-3-[4-(2,2,2-trifluoroethoxy)phenyl]-3,5-dihydro-4H-pyrrolo[3,2-d]pyrimidin-4-one], the inhibition at 10 µM came to 100%.

For the molecule `O=c1c2[nH]ccc2nc(SCCCS(=O)(=O)N2CCOCC2)n1-c1ccc(OCC(F)(F)F)cc1` [Example 106, 2-{[3-(Morpholin-4-ylsulfonyl)propyl]sulfanyl}-3-[4-(2,2,2-trifluoroethoxy)phenyl]-3,5-dihydro-4H-pyrrolo[3,2-d]pyrimidin-4-one], the inhibition at 10 µM was determined as 102%.

On to `O=c1c2[nH]ccc2nc(SCCCS(=O)(=O)NCC(F)(F)F)n1-c1ccc(OCC(F)(F)F)cc1` [Example 107, 3-({4-Oxo-3-[4-(2,2,2-trifluoroethoxy)phenyl]-4,5-dihydro-3H-pyrrolo[3,2-d]pyrimidin-2-yl}sulfanyl)-N-(2,2,2-trifluoroethyl)propane-1-sulfonamide], for which the inhibition at 10 µM stood at 100%.

For the molecule `O=c1c2[nH]ccc2nc(SCCCS(=O)(=O)NC2CC2)n1-c1ccc(OCC(F)(F)F)cc1` [Example 108, N-cyclopropyl-3-({4-oxo-3-[4-(2,2,2-trifluoroethoxy)phenyl]-4,5-dihydro-3H-pyrrolo[3,2-d]pyrimidin-2-yl}sulfanyl)propane-1-sulfonamide], the inhibition at 10 µM worked out at 101%.

Turning to `O=C(CCCSc1nc2cc[nH]c2c(=O)n1-c1ccc(OCC(F)(F)F)cc1)N1CCOCC1` [Example 109, 2-[(4-Morpholin-4-yl-4-oxobutyl)sulfanyl]-3-[4-(2,2,2-trifluoroethoxy)phenyl]-3,5-dihydro-4H-pyrrolo[3,2-d]pyrimidin-4-one], the inhibition at 10 µM came out at 101%.

Consider `O=C(CCCSc1nc2cc[nH]c2c(=O)n1-c1ccc(OCC(F)(F)F)cc1)N1CCCC1` [Example 110, 2-[(4-Oxo-4-pyrrolidin-1-ylbutyl)sulfanyl]-3-[4-(2,2,2-trifluoroethoxy)phenyl]-3,5-dihydro-4H-pyrrolo[3,2-d]pyrimidin-4-one], for which the inhibition at 10 µM came to 102%.

With `O=c1c2[nH]ccc2nc(SCCN2CCOCC2)n1-c1ccc(OCC(F)(F)F)cc1` [Example 111, 2-[(2-Morpholin-4-ylethyl)sulfanyl]-3-[4-(2,2,2-trifluoroethoxy)phenyl]-3,5-dihydro-4H-pyrrolo[3,2-d]pyrimidin-4-one], the inhibition at 10 µM was determined as 98%.

On to `O=c1c2[nH]ccc2nc(SCCCN2CCOCC2)n1-c1ccc(OCC(F)(F)F)cc1` [Example 112, 2-[(3-Morpholin-4-ylpropyl)sulfanyl]-3-[4-(2,2,2-trifluoroethoxy)phenyl]-3,5-dihydro-4H-pyrrolo[3,2-d]pyrimidin-4-one], for which the inhibition at 10 µM came to 102%.

On to `CC(C)CCOc1ccc(-n2c(SCCCC(=O)NCCC#N)nc3cc[nH]c3c2=O)cc1` [Example 113, N-(2-cyanoethyl)-4-({3-[4-(3-methylbutoxy)phenyl]-4-oxo-4,5-dihydro-3H-pyrrolo[3,2-d]pyrimidin-2-yl}sulfanyl)butanamide], for which the inhibition at 10 µM came to 102%.

`CC(C)(C)COc1ccc(-n2c(SCCCC(=O)NCCC#N)nc3cc[nH]c3c2=O)cc1` [Example 115, N-(2-cyanoethyl)-4-({3-[4-(2,2-dimethylpropoxy)phenyl]-4-oxo-4,5-dihydro-3H-pyrrolo[3,2-d]pyrimidin-2-yl}sulfanyl)butanamide]: the inhibition at 10 µM amounted to 103%.

Turning to `O=c1c2[nH]ccc2nc(SCCCO)n1-c1ccc(OCC(F)(F)F)cc1` [Example 116, 2-[(3-Hydroxypropyl)sulfanyl]-3-[4-(2,2,2-trifluoroethoxy)phenyl]-3,5-dihydro-4H-pyrrolo[3,2-d]pyrimidin-4-one], the inhibition at 10 µM amounted to 101%.

Regarding `O=c1c2[nH]ccc2nc(SCCCCO)n1-c1ccc(OCC(F)(F)F)cc1` [Example 119, 2-[(4-Hydroxybutyl)sulfanyl]-3-[4-(2,2,2-trifluoroethoxy)phenyl]-3,5-dihydro-4H-pyrrolo[3,2-d]pyrimidin-4-one], the inhibition at 10 µM worked out at 102%.

Regarding `NS(=O)(=O)CCCSc1nc2cc[nH]c2c(=O)n1-c1ccc(OCC(F)(F)F)cc1` [Example 120, 3-({4-Oxo-3-[4-(2,2,2-trifluoroethoxy)phenyl]-4,5-dihydro-3h-pyrrolo[3,2-d]pyrimidin-2-yl}sulfanyl)propane-1-sulfonamide], the inhibition at 10 µM was determined as 101%.

Consider `CSc1nc2cc[nH]c2c(=O)n1-c1ccc(OCC(F)(F)F)cc1` [Example 121, 2-(Methylsulfanyl)-3-[4-(2,2,2-trifluoroethoxy)phenyl]-3,5-dihydro-4H-pyrrolo[3,2-d]pyrimidin-4-one], for which the inhibition at 10 µM amounted to 100%.

For the molecule `CC(C)(O)CCCSc1nc2cc[nH]c2c(=O)n1-c1ccc(OCC(F)(F)F)cc1` [Example 123, 2-[(4-Hydroxy-4-methylpentyl)sulfanyl]-3-[4-(2,2,2-trifluoroethoxy)phenyl]-3,5-dihydro-4H-pyrrolo[3,2-d]pyrimidin-4-one], the inhibition at 10 µM is 101%.

Take `O=c1c2[nH]ccc2nc(SCCO)n1-c1ccc(OCC(F)(F)F)cc1` [Example 127, 2-[(2-Hydroxyethyl)sulfanyl]-3-[4-(2,2,2-trifluoroethoxy)phenyl]-3,5-dihydro-4H-pyrrolo[3,2-d]pyrimidin-4-one]: the inhibition at 10 µM worked out at 102%.

For `O=c1c2[nH]ccc2nc(SC(F)F)n1-c1ccc(OCC(F)(F)F)cc1` [Example 129, 2-[(Difluoromethyl)sulfanyl]-3-[4-(2,2,2-trifluoroethoxy)phenyl]-3,5-dihydro-4H-pyrrolo[3,2-d]pyrimidin-4-one], the inhibition at 10 µM came to 101%.

Turning to `CC(C)OCC(O)CSc1nc2cc[nH]c2c(=O)n1-c1ccc(OCC(F)(F)F)cc1` (centres unmarked) [Example 130, 2-{[2-Hydroxy-3-(1-methylethoxy)propyl]sulfanyl}-3-[4-(2,2,2-trifluoroethoxy)phenyl]-3,5-dihydro-4H-pyrrolo[3,2-d]pyrimidin-4-one], the inhibition at 10 µM amounted to 100%.

With `CC(C)(O)CCSc1nc2cc[nH]c2c(=O)n1-c1ccc(OCC(F)(F)F)cc1` [Example 131, 2-[(3-Hydroxy-3-methylbutyl)sulfanyl]-3-[4-(2,2,2-trifluoroethoxy)phenyl]-3,5-dihydro-4H-pyrrolo[3,2-d]pyrimidin-4-one], the inhibition at 10 µM stood at 108%.

Turning to `COCCCSc1nc2cc[nH]c2c(=O)n1-c1ccc(OCC(F)(F)F)cc1` [Example 132, 2-[(3-Methoxypropyl)sulfanyl]-3-[4-(2,2,2-trifluoroethoxy)phenyl]-3,5-dihydro-4H-pyrrolo[3,2-d]pyrimidin-4-one], the inhibition at 10 µM came out at 107%.

Consider `CC1(O)CCN(C(=O)CCCSc2nc3cc[nH]c3c(=O)n2-c2ccc(OCC(F)(F)F)cc2)CC1` [Example 134, 2-{[4-(4-Hydroxy-4-methylpiperidin-1-yl)-4-oxobutyl]sulfanyl}-3-[4-(2,2,2-trifluoroethoxy)phenyl]-3,5-dihydro-4H-pyrrolo[3,2-d]pyrimidin-4-one], for which the inhibition at 10 µM was 100%.

Turning to `O=C(CCCSc1nc2cc[nH]c2c(=O)n1-c1ccc(OCC(F)(F)F)cc1)N1CCS(=O)(=O)CC1` [Example 135, 2-{[4-(1,1-Dioxidothiomorpholin-4-yl)-4-oxobutyl]sulfanyl}-[4-(2,2,2-trifluoroethoxy)phenyl]-3,5-dihydro-4H-pyrrolo[3,2-d]pyrimidin-4-one], the inhibition at 10 µM was 100%.

Turning to `O=C(CCCSc1nc2cc[nH]c2c(=O)n1-c1ccc(OCC(F)(F)F)cc1)N1CCSCC1` [Example 136, 2-[(4-Oxo-4-thiomorpholin-4-ylbutyl)sulfanyl]-3-[4-(2,2,2-trifluoroethoxy)phenyl]-3,5-dihydro-4H-pyrrolo[3,2-d]pyrimidin-4-one], the inhibition at 10 µM was determined as 99%.
